# Several values for one entry are separate records, joined by “and”; a condition that tells them apart may be missing. Identical values can stand only once.
# Columns and labels:
# Adenosine receptor A3 = target: T1, Adenosine receptor A3 (Homo sapiens, UniProt P0DMS8)
# T1 sequence (P0DMS8 whole entry): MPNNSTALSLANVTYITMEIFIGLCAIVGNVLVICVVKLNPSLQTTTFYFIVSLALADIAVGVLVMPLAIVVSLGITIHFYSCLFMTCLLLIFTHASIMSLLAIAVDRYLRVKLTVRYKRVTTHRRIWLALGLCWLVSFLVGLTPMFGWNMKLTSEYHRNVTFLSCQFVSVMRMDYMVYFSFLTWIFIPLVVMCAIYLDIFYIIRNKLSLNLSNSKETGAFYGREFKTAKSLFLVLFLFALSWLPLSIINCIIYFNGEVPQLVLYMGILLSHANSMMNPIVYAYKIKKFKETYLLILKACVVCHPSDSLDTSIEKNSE
# Adenosine receptor A2b = target: T2, Adenosine receptor A2b (Homo sapiens, UniProt P29275)
# T2 sequence (P29275 whole entry): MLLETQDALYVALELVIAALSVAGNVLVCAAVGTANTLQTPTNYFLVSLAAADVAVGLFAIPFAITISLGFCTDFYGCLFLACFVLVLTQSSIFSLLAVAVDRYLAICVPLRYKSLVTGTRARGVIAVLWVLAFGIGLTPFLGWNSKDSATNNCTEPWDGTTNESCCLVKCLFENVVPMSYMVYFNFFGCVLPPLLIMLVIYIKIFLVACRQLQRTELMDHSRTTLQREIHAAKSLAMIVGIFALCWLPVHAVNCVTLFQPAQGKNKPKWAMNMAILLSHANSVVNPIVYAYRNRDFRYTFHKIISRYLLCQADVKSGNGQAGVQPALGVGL
# Adenosine receptor A1 = target: T3, Adenosine receptor A1 (Homo sapiens, UniProt P30542)
# T3 sequence (P30542 whole entry): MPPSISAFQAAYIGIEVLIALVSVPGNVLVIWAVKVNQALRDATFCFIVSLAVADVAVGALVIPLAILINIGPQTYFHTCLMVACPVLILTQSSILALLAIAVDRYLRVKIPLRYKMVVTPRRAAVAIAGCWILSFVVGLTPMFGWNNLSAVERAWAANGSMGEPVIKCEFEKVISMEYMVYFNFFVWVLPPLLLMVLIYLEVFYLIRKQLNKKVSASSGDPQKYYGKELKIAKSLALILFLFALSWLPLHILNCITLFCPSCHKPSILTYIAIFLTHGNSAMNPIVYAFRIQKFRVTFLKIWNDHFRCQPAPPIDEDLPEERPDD
# Adenosine receptor A2a = Adenosine receptor A2a (Homo sapiens, UniProt P29274)
# Sequence of Adenosine receptor A2a (P29274 whole entry): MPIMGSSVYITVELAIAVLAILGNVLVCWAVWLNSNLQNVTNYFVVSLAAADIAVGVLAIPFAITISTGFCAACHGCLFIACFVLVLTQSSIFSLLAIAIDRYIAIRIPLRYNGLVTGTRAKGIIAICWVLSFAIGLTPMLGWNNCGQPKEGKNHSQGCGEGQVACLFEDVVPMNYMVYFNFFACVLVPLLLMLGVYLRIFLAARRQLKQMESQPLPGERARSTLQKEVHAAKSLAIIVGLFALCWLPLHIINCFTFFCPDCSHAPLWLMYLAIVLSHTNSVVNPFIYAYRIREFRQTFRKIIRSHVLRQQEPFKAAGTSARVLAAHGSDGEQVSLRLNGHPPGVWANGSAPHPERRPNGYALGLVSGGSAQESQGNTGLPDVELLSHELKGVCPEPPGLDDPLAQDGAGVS
Ki (Adenosine receptor A2b),SMILES,also measured
,CCCn1c(=O)c2nc[nH]c2n(CCC)c1=O,Ki (Adenosine receptor A3): 509 nM
12.3 nM,"CCn1c(=O)c2[nH]c(-c3ccccc3)nc2n(CC)c1=O [1,3-Diethyl-8-phenyl-3,7-dihydro-purine-2,6-dione]",
> 10000 nM,Nc1nc(Cl)nc2c1ncn2[C@@H]1O[C@H](CO)[C@H](O)C1O (stereo partly specified) [2-Chloroadenosine],
,CCCn1c(=O)[nH]c(=O)c2[nH]cnc21 [3-Propylxanthine (enprofylline)],Ki (Adenosine receptor A1): > 10000 nM
> 10000 nM,CCNC(=O)C(=O)Nc1nc(Nc2ccccc2)c2ncn([C@@H]3O[C@H](CO)[C@@H](O)[C@H]3O)c2n1 [AB-NECA],
> 10000 nM,Nc1ccc(CCNc2nc(N)c3ncn(C4OC(CO)C(O)C4O)c3n2)cc1I (stereo unspecified) [CAS_190964],
51.6 nM,CCCn1c(=O)c2[nH]c(-c3ccc(C=CC(=O)O)cc3)nc2n(CCC)c1=O [NSC_129447],
40 nM and 30 nM,CCCn1c(=O)c2nc(-c3ccc(OCC(=O)O)cc3)[nH]c2n(Cc2ccc(N)c(I)c2)c1=O [NSC_163889],Ki (Adenosine receptor A3): 15 nM; Ki (Adenosine receptor A2a): 95 nM; Ki (Adenosine receptor A1): 70 nM

# Source: BindingDB's records for PubMed 10496952 (University of Virginia, 1999)
